This note sets out measurements from ChEMBL document CHEMBL1201862, “PubChem BioAssay data set” (2004).

“Also recorded” adds a separate entry of the source. The source made the active and inactive calls.

The target of series [1] is T1, Cytochrome P450 1A2 (Homo sapiens, UniProt P05177).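 Also: PubChem cytochrome P450 panel assay, CYP1A2 panel member.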
T1 sequence (P05177 whole entry): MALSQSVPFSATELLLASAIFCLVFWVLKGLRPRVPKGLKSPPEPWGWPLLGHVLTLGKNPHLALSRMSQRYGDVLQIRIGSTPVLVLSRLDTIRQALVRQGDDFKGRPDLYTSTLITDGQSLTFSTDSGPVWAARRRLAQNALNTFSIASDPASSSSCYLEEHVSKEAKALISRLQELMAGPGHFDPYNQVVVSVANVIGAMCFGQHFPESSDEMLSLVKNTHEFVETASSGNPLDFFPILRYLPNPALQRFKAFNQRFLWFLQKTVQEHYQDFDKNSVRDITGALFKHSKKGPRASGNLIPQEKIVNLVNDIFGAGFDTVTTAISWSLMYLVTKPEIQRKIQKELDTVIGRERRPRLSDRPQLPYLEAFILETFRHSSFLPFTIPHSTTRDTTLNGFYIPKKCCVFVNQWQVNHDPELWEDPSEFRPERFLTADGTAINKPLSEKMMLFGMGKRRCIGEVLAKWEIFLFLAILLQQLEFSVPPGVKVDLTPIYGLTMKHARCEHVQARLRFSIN

Series [2] addresses Cytochrome P450 2C19 (Homo sapiens, UniProt P33261). Description: Cytochrome panel assay with activity outcomes. Panel member name: p450-cyp2c19 Compounds with AC50 equal or less than 10 uM are considered active. It counts as functional.
For series [3], the target named is T2, Cytochrome P450 2D6 (Homo sapiens, UniProt P10635).
The target of series [4] is Cytochrome P450 2C9 (Homo sapiens, UniProt P11712).
The target in series [5] is T3, Cytochrome P450 3A4 (Homo sapiens, UniProt P08684).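 Also: CYP3A4 tested as one member of a cytochrome P450 panel screen.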
Series [6] deals with T3, Cytochrome P450 3A4. This is another data set of the same source.
For series [7], the target named is T2, Cytochrome P450 2D6. Put plainly: qHTS Assay for Inhibitors and Substrates of Cytochrome P450 2D6. [Related pubchem assays: 410 ]. The series is classed as ADME. The settings on record: read-out: Potency.
Series [8] addresses T1, Cytochrome P450 1A2. The source holds these as a separate data set.
Series [9] relates to Jurkat. Put plainly: SAR Analysis of small molecule inhibitors of […] specific antigen receptor-induced NF-kB activation in a Jurkat cell line using a luminescence assay - Set 3. [Related pubchem assays (depositor defined):AID435022, AID435025, AID465]. The settings on record: Homo sapiens. It counts as functional, cell-based.
The test system of series [10] is HEK293. Description: SAR Analysis of small molecule inhibitors of B-cell specific antigen receptor-induced NF-kB activation in a HEK-293T cell line using a luminescence assay - Set 2. [Related pubchem assays (depositor defined):AID435022, AID435025, AID489021]. The series is classed as functional, cell-based. The settings on record: Homo sapiens.
Series [11] concerns HEK293. Put plainly: cytotoxicity in HEK293T NF-kB-Luc cells, SAR follow-up, cytotoxicity control for NF-kB activator project, cell-based, resazurin fluorescence (AID 493251). The conditions noted are these: Homo sapiens. The series is classed as functional. For orientation: Alamar Blue is a resazurin reagent that responds to reducing activity.
Series [12] addresses Apelin receptor (Homo sapiens, UniProt P35414). Put plainly: APJ beta-arrestin recruitment antagonism, SAR follow-up, selectivity assay for CCR6 antagonist project, cell-based, luminescent, enzyme-fragment complementation (AID 588359). The series is classed as functional.
Series [13] addresses Beta-galactosidase (Escherichia coli, UniProt Q8VNN2). Description: beta-galactosidase enzyme inhibitors and activators, dose response, artefact control for CCR6 antagonist project, biochemical, E. coli enzyme, set 3 (AID 504712). It counts as functional.
The subject of series [14] is BJ. Description: cytotoxicity toward BJ-TERT fibroblasts, dose response, cell-based, RAS-independent, luminescence (AID 1933). It counts as functional. The settings on record: Homo sapiens.
Series [15] deals with Heat shock protein HSP 90-alpha (Homo sapiens, UniProt P07900). The series is classed as functional, organism-based.
Series [16] deals with Jurkat. Description: SAR Analysis of small molecule inhibitors of T-cell specific antigen receptor-induced NF-kB activation in a Jurkat cell line using a luminescence assay - Set 2. [Related pubchem assays (depositor defined):AID435003, AID435012, AID465]. It counts as functional, cell-based. The conditions noted are these: Homo sapiens.
A short description of series [17]: Shn3 3'UTR reporter inhibitors, dose response, cell-based, Clone20 osteoblasts, firefly luciferase, cherry-picked (AID 624132).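 Also: firefly luciferase luminescence from reporter carrying the Shn3 3'UTR in osteoblasts.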 The series is classed as functional.
Series [18] in a line: HepG2 cell cytotoxicity, dose response, cytotoxicity control for Shn3 inhibitor project, CellTiter-Glo, cherry-picked (AID 624134). It counts as functional, cell-based. Background: Cellular ATP, detected with luciferase, serves as a proxy for viable cell number.
The nature of series [19]: cytotoxicity toward DRD oncogenic fibroblasts, dose response, cell-based, non-viral oncogenic, luminescence (AID 1934). The settings on record: Homo sapiens. It counts as functional.
The subject of series [20] is BJ. Put plainly: cytotoxicity toward BJ-TERT-LT-ST fibroblasts, dose response, cell-based, RAS-independent, luminescence (AID 1935).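 Also: BJ fibroblasts immortalized with TERT plus LT and ST oncogenes.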 The series is classed as functional. The conditions noted are these: Homo sapiens.
Series [21] in a line: cells. The series is classed as functional, cell-based.
For series [22], the system named is HEK293. Put plainly: SAR Analysis of small molecule inhibitors of T-cell specific antigen receptor-induced NF-kB activation in a HEK-293T cell line using a luminescence assay - Set 2. [Related pubchem assays (depositor defined):AID435003, AID435012, AID489026]. It counts as functional, cell-based. The settings on record: Homo sapiens.
Series [23] can be described thus: cells. It counts as functional, cell-based. The source holds these as a separate data set.
In series [24] the test system is BJ. Description: cytotoxicity toward Ras-transformed BJeLR fibroblasts, dose response, cell-based, alamar blue fluorescence, cherrypicked samples (AID 2631).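 Also: confirmatory dose-response assay in RAS-dependent BJ fibroblasts engineered with TERT, LT and ST, with cytotoxicity read by fluorescence.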 It counts as functional. The conditions noted are these: Homo sapiens.
Series [25] deals with BJ. Description: cells. It counts as functional, cell-based. The conditions noted are these: Homo sapiens.
Series [26] is described as follows: control 3'UTR Renilla luciferase suppression, dose response, counter-screen for Shn3 inhibitor project, cell-based, Clone20-Shn3RL, cherry-picked (AID 624133). The series is classed as functional.
Series [27] is described as follows: growth induction of Burl-1 ts yeast mutant, dose response, counter-screen for SUMOylation pathway inhibitor project, whole organism, S. cerevisiae, luminescence (AID 463199). The series is classed as functional. A general note: The purpose of a counterscreen is to sort out artefacts and off-target activity.

T2 sequence (P10635 whole entry): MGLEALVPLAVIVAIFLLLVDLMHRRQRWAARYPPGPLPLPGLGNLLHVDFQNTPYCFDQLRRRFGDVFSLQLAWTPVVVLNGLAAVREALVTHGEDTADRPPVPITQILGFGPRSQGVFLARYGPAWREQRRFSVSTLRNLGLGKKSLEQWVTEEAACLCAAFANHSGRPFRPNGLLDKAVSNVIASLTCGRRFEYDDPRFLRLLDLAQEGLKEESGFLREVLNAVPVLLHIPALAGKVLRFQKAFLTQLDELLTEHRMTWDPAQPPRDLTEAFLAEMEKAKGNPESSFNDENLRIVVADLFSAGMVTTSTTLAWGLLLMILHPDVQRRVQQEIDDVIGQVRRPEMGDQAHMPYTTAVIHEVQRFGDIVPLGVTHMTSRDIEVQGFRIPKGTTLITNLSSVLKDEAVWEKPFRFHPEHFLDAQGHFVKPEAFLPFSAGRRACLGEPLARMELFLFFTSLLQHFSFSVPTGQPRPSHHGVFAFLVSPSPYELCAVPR
Cytochrome P450 2C19, sequence (P33261 whole entry): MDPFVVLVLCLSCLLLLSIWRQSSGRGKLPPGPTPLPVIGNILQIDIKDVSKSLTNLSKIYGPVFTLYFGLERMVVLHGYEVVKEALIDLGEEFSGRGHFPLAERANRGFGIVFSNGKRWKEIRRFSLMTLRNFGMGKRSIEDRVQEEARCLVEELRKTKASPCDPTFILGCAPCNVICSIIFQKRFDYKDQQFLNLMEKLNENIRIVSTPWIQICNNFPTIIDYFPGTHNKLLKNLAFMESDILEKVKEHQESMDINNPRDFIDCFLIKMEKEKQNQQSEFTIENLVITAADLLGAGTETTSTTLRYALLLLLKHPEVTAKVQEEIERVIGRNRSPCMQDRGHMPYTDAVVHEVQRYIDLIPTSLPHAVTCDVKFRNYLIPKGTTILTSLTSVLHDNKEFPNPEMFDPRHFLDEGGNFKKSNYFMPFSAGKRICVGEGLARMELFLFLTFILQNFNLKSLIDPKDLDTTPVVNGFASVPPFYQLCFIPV
T3 sequence (P08684 whole entry): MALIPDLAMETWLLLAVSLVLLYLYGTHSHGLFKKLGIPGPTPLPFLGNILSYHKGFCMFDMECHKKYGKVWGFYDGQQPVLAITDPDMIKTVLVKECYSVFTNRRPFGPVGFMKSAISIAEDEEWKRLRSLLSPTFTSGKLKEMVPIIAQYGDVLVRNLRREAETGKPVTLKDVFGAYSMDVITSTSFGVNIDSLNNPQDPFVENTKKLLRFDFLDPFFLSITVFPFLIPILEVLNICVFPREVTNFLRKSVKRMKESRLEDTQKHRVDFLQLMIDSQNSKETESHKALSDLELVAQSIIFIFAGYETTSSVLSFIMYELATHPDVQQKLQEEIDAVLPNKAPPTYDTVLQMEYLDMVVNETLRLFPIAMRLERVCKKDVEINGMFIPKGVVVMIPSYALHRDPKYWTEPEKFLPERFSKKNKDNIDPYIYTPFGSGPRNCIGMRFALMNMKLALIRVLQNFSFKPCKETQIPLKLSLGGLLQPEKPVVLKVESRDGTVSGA
Cytochrome P450 2C9, sequence (P11712 whole entry): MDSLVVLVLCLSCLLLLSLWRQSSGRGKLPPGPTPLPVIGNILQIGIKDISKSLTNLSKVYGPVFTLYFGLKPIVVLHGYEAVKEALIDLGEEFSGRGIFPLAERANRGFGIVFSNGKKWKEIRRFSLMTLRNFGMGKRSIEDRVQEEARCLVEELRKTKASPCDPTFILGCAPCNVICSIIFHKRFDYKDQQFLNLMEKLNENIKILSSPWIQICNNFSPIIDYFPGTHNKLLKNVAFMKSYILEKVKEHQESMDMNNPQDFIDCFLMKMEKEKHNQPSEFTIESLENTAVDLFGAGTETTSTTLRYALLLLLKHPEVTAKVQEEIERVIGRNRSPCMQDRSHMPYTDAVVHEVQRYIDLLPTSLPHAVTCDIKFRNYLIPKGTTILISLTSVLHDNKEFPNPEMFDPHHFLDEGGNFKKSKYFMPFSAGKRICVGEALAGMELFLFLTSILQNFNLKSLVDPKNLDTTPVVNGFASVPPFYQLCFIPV
Apelin receptor, sequence (P35414 whole entry, the tested form may be a part): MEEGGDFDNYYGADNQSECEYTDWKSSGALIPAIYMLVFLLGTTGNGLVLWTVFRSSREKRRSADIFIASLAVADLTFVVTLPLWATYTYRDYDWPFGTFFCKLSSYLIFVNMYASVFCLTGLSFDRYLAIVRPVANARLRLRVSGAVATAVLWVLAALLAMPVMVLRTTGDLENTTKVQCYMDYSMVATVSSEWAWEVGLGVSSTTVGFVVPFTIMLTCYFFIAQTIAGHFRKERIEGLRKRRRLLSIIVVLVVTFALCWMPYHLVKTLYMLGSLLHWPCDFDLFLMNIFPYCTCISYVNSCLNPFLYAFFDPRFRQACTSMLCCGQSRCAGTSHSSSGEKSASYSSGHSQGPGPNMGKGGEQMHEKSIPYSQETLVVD
Beta-galactosidase, sequence (Q8VNN2 whole entry): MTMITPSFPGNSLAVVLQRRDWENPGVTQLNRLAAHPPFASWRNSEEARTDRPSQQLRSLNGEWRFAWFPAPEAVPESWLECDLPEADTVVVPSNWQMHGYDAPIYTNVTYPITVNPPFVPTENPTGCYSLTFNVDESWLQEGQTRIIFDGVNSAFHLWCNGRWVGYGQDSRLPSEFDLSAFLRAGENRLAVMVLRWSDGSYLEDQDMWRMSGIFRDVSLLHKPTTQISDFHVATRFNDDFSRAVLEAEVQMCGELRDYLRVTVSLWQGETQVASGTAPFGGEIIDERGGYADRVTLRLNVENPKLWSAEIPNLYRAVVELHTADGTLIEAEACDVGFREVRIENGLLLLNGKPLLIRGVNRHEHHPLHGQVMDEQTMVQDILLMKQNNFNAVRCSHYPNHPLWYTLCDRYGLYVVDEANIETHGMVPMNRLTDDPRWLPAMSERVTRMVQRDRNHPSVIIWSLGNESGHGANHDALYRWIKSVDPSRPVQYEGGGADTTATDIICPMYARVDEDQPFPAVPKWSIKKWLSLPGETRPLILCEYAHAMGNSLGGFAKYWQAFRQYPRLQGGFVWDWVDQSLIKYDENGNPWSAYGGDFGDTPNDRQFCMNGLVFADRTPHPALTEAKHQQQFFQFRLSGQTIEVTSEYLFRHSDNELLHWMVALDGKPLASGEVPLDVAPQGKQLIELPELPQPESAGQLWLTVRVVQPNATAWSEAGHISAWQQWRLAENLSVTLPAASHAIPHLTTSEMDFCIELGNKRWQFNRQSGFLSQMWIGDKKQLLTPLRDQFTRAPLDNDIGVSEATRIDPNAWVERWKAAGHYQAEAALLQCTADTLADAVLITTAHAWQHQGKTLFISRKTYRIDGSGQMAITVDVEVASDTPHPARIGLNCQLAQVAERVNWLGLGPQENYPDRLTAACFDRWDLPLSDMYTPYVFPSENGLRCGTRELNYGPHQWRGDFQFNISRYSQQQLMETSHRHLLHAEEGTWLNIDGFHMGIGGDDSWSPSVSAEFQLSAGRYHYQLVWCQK

Take `COc1cc2nc(N3CCN(C(=O)[C@@H]4COc5ccccc5O4)CC3)nc(N)c2cc1OC.CS(=O)(=O)O`: the AC50 result is “inactive” in series [1] and 0.501 µM (inconclusive) in series [2] (read-out: AC50).

`N[C@H](CCC(=O)O)C(=O)O` [D-GLUTAMATE]: the AC50 entry in series [1] is “inactive”; in series [2], “inactive”; in series [3], “inactive; also recorded: inconclusive”; in series [4] it was “inactive”; in series [5] it was “inactive”; in series [6], 25.1 µM (inconclusive). Further, the AC50 is 10 µM (not active) in [7] and 31.6 µM (inconclusive) in [8].

Broadly, the IC50 is the concentration that gives 50% inhibition. With `CCOc1ccc(-c2nc(CSCC(=O)NCCc3ccc(Cl)cc3)c(C)o2)cc1`, the IC50 is 63.8 µM (inactive) in series [9], > 80 µM (inactive) in [10] and > 80 µM (inactive) in series [11].

Regarding `O=C(NNC(=O)c1cc(-c2ccccc2)nn1-c1ccccc1)c1ccccc1`, the figures for the IC50 in [12] and in [13] were 14.8 µM (active) and > 66.6 µM (inactive), respectively.

Broadly, the EC50 is the concentration that produces a half-maximal response. On to `CCCCC(=O)NC(c1ccc(C(C)C)cc1)c1ccc2cccnc2c1O` (stereo not given), for which the EC50 in series [14] was 0.534 µM (active); in series [19], 4.19 µM (active); in series [20], 1.5 µM (inconclusive); in series [21], 2.94 µM (active); in series [23] it was > 350 µM (not active); in series [24] it was 2.13 µM (active). Moreover, the EC50 in series [25] is 2.67 µM (active). The AC50 in series [15] is 5.41 µM (active); in series [17], 0.57 µM (active); in series [18], > 70 µM (inactive); in series [26] it was 0.331 µM (active). Moreover, the IC50 was 3.17 µM (active) in series [16], 6.67 µM (active) in series [22] and 20.2 µM (inactive) in series [11].

For `CCNCCNC(=O)c1c(O)nc2c(c1O)CCCC2`, the AC50 in series [27] is 73.1 µM (active).
